From patent US7642245B2, “Antibacterial compounds having a (pyrrole carboxamide)-(benzamide)-(imidazole carboxamide) motif” (Oscient Pharmaceuticals Corporation, priority 2002, dated 2010)

Legend:
[1] = test system: S. aureus ATCC 13709; assay: MIC, NCCLS broth microdilution; type: cell-based, Staphylococcus aureus; details: A = S. aureus ATCC 13709 (MSSA)
Procedure, shortened: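 Minimal inhibitory concentration determined by NCCLS broth microdilution in microtiter plates per documents M7-A4, M11-A4 and M27-T. S. aureus ATCC 27660 is a methicillin-resistant strain. The antifungal test on C. albicans followed the method recommended in the Manual of Clinical Microbiology (1995).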

[2] = test system: S. aureus ATCC 27660; assay: MIC, NCCLS broth microdilution; type: cell-based, Staphylococcus aureus; details: B = S. aureus ATCC 27660 (MRSA)
Procedure, shortened: (§1)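 Broth microdilution MIC per NCCLS M7-A4 and M11-A4 for bacteria (MRSA strain for S. aureus ATCC 27660); antifungal MIC per NCCLS M27-T with the Murray 1995 Manual of Clinical Microbiology method. MIC taken as lowest inhibitory concentration.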

[3] = test system: E. faecalis ATCC 29212; assay: MIC, NCCLS broth microdilution; type: cell-based, Enterococcus faecalis; details: C = E. faecalis ATCC 29212
Procedure, shortened: as §1

[4] = test system: B. cereus ATCC 11778; assay: MIC, NCCLS broth microdilution; type: cell-based, Bacillus cereus; details: D = B. cereus ATCC 11778
Procedure, shortened: as §1

[5] = test system: S. pneumoniae ATCC 49619; assay: MIC, NCCLS broth microdilution; type: cell-based, Streptococcus pneumoniae; details: E = S. pneumoniae ATCC 49619
Procedure, shortened: as §1

[6] = test system: C. albicans ATCC 38247; assay: MIC, antifungal assay; type: cell-based, Candida albicans; details: F = C. albicans ATCC 38247
Procedure, shortened: as §1

[7] = test system: E. coli ATCC 25922; assay: MIC, NCCLS broth microdilution; type: cell-based, Escherichia coli; details: G = E. coli ATCC 25922
Procedure, shortened: as §1

[8] = test system: M. catarrhalis (ATCC 25238); assay: MIC, NCCLS broth microdilution; type: cell-based, Moraxella (now Branhamella) catarrhalis; details: H = M. catarrhalis (ATCC 25238)
Procedure, shortened: as §1

| Structure (SMILES) | Minimum Inhibitory Concentration (MIC) [1] | Minimum Inhibitory Concentration (MIC) [2] | Minimum Inhibitory Concentration (MIC) [3] | Minimum Inhibitory Concentration (MIC) [4] | Minimum Inhibitory Concentration (MIC) [5] | Minimum Inhibitory Concentration (MIC) [6] | Minimum Inhibitory Concentration (MIC) [7] | Minimum Inhibitory Concentration (MIC) [8] |
| --- | --- | --- | --- | --- | --- | --- | --- | --- |
| CCN1CCN(CCNC(=O)c2nc(NC(=O)c3ccc(NC(=O)c4cc(NC(=O)c5cc6ccccc6cn5)cn4C)cc3)cn2C)CC1 [Compound A-13] | +++ (MIC ≦ 4 μg/mL) | +++ (MIC ≦ 4 μg/mL) | +++ (MIC ≦ 4 μg/mL) | +++ (MIC ≦ 4 μg/mL) | +++ (MIC ≦ 4 μg/mL) | >32 µg/mL | >32 µg/mL | +++ (MIC ≦ 4 μg/mL) |
| Cn1cc(NC(=O)c2cc3ccccc3cn2)cc1C(=O)Nc1ccc(C(=O)Nc2cn(C)c(C(=O)NCCN3CCN(CCO)CC3)n2)cc1 [Compound A-27] | +++ (MIC ≦ 4 μg/mL) | +++ (MIC ≦ 4 μg/mL) | +++ (MIC ≦ 4 μg/mL) | +++ (MIC ≦ 4 μg/mL) | +++ (MIC ≦ 4 μg/mL) | >32 µg/mL | >32 µg/mL | +++ (MIC ≦ 4 μg/mL) |
| Cn1cc(NC(=O)c2cc3ccccc3cn2)cc1C(=O)Nc1ccc(C(=O)Nc2cn(C)c(C(=O)NCCNCC3CC3)n2)cc1 [Compound A-34] | +++ (MIC ≦ 4 μg/mL) | +++ (MIC ≦ 4 μg/mL) | +++ (MIC ≦ 4 μg/mL) | +++ (MIC ≦ 4 μg/mL) | +++ (MIC ≦ 4 μg/mL) | >32 µg/mL | +++ (MIC ≦ 4 μg/mL) | +++ (MIC ≦ 4 μg/mL) |
| Cn1cc(NC(=O)c2cc3ccccc3cn2)cc1C(=O)Nc1ccc(C(=O)Nc2cn(C)c(C(=O)NCCN3CCN(C(=O)CNC(=O)OC(C)(C)C)CC3)n2)cc1 [Compound A-64] | +++ (MIC ≦ 4 μg/mL) | +++ (MIC ≦ 4 μg/mL) | +++ (MIC ≦ 4 μg/mL) | +++ (MIC ≦ 4 μg/mL) | +++ (MIC ≦ 4 μg/mL) | >32 µg/mL | >32 µg/mL | ++ (4 < MIC < 12 μg/mL) |
| CCC(O)CN1CCN(CCNC(=O)c2nc(NC(=O)c3ccc(NC(=O)c4cc(NC(=O)c5cc6ccccc6cn5)cn4C)cc3)cn2C)CC1 (stereo not drawn) [Compound A-78] | +++ (MIC ≦ 4 μg/mL) | +++ (MIC ≦ 4 μg/mL) | +++ (MIC ≦ 4 μg/mL) | +++ (MIC ≦ 4 μg/mL) | +++ (MIC ≦ 4 μg/mL) | >32 µg/mL | + (12 ≦ MIC ≦ 32 μg/mL) | +++ (MIC ≦ 4 μg/mL) |
| CCCCN1CCN(CCNC(=O)c2nc(NC(=O)c3ccc(NC(=O)c4cc(NC(=O)c5cc6ccccc6cn5)cn4C)cc3)cn2C)CC1 [Compound A-14] | +++ (MIC ≦ 4 μg/mL) | +++ (MIC ≦ 4 μg/mL) | +++ (MIC ≦ 4 μg/mL) | +++ (MIC ≦ 4 μg/mL) | +++ (MIC ≦ 4 μg/mL) | >32 µg/mL | >32 µg/mL | +++ (MIC ≦ 4 μg/mL) |

Other lines, results leading:

| Minimum Inhibitory Concentration (MIC) [1] | Minimum Inhibitory Concentration (MIC) [2] | Minimum Inhibitory Concentration (MIC) [3] | Minimum Inhibitory Concentration (MIC) [4] | Minimum Inhibitory Concentration (MIC) [5] | Minimum Inhibitory Concentration (MIC) [6] | Minimum Inhibitory Concentration (MIC) [7] | Minimum Inhibitory Concentration (MIC) [8] | Structure (SMILES) |
| --- | --- | --- | --- | --- | --- | --- | --- | --- |
| +++ (MIC ≦ 4 μg/mL) | +++ (MIC ≦ 4 μg/mL) | +++ (MIC ≦ 4 μg/mL) | +++ (MIC ≦ 4 μg/mL) | +++ (MIC ≦ 4 μg/mL) | >32 µg/mL | >32 µg/mL | +++ (MIC ≦ 4 μg/mL) | Cn1cc(NC(=O)c2cc3ccccc3cn2)cc1C(=O)Nc1ccc(C(=O)Nc2cn(C)c(C(=O)NCCN3CCC(OC(=O)CNC(=O)OC(C)(C)C)CC3)n2)cc1 [Compound A-66] |
| +++ (MIC ≦ 4 μg/mL) | +++ (MIC ≦ 4 μg/mL) | +++ (MIC ≦ 4 μg/mL) | +++ (MIC ≦ 4 μg/mL) | +++ (MIC ≦ 4 μg/mL) | >32 µg/mL | >32 µg/mL | +++ (MIC ≦ 4 μg/mL) | CC(C)N1CCN(CCC(=O)OC2CCN(CCNC(=O)c3nc(NC(=O)c4ccc(NC(=O)c5cc(NC(=O)c6cc7ccccc7cn6)cn5C)cc4)cn3C)CC2)CC1 [Compound A-53] |
| +++ (MIC ≦ 4 μg/mL) | +++ (MIC ≦ 4 μg/mL) | ++ (4 < MIC < 12 μg/mL) | ++ (4 < MIC < 12 μg/mL) | +++ (MIC ≦ 4 μg/mL) | + (12 ≦ MIC ≦ 32 μg/mL) | >32 µg/mL | >32 µg/mL | CCOCCCNCCNC(=O)c1nc(NC(=O)c2ccc(NC(=O)c3cc(NC(=O)c4cc5ccccc5cn4)cn3C)cc2)cn1C [Compound A-31] |
| +++ (MIC ≦ 4 μg/mL) | +++ (MIC ≦ 4 μg/mL) | +++ (MIC ≦ 4 μg/mL) | +++ (MIC ≦ 4 μg/mL) | +++ (MIC ≦ 4 μg/mL) | >32 µg/mL | >32 µg/mL | +++ (MIC ≦ 4 μg/mL) | CCN(CCNC(=O)c1nc(NC(=O)c2ccc(NC(=O)c3cc(NC(=O)c4cc5ccccc5cn4)cn3C)cc2)cn1C)CCOC [Compound A-21] |
| +++ (MIC ≦ 4 μg/mL) | +++ (MIC ≦ 4 μg/mL) | +++ (MIC ≦ 4 μg/mL) | +++ (MIC ≦ 4 μg/mL) | +++ (MIC ≦ 4 μg/mL) | >32 µg/mL | >32 µg/mL | +++ (MIC ≦ 4 μg/mL) | Cn1cc(NC(=O)c2cc3ccccc3cn2)cc1C(=O)Nc1ccc(C(=O)Nc2cn(C)c(C(=O)NCCN3CCC(OC(=O)CCN4CCOCC4)CC3)n2)cc1 [Compound A-59] |
| +++ (MIC ≦ 4 μg/mL) | +++ (MIC ≦ 4 μg/mL) | +++ (MIC ≦ 4 μg/mL) | +++ (MIC ≦ 4 μg/mL) | +++ (MIC ≦ 4 μg/mL) | >32 µg/mL | >32 µg/mL | +++ (MIC ≦ 4 μg/mL) | Cn1cc(NC(=O)c2cc3ccccc3cn2)cc1C(=O)Nc1ccc(C(=O)Nc2cn(C)c(C(=O)NCCNc3ccccn3)n2)cc1 [Compound A-23] |
